Laboratory results: article PMC10747602, “Dose Response, Dosimetric, and Metabolic Evaluations of Replacement PFAS Perfluoro-(2,5,8-trimethyl-3,6,9-trioxadodecanoic) Acid (HFPO-TeA)” (Toxics, 2023)
Values joined by “and” are separate entries in the source; they are usually repeats but may differ in a detail not shown here. Equal entries are not always repeated.

Legend:
[1] = Ultracentrifugation plasma protein binding assay, human plasma; type: in vitro ADME; settings: both sexes, human
Protocol: (§1) Information on the chemicals and materials used in the plasma protein binding work can be found in Supplementary Text S10 and Table S3. Human and rodent plasma were evaluated for plasma protein binding using ultracentrifugation, as previously described. Working solutions of 3 mM of HFPO-DA, HFPO-TA, and HFPO-TeA were prepared separately in ethanol, with each working solution containing 3 mM of testosterone (Sigma-Aldrich; ≥98% pure) as a reference compound for assay performance. An aliquot of each stock solution (13.3 µL) was added to separate 15 mL tubes with 3.987 mL of plasma for a final assay concentration of 10 µM. The plasma solutions were incubated at 37 °C and 125 rpm for 60 min. One-hour stability samples (T60 min) were drawn in triplicate and diluted in four volumes of plasma ultrafiltrate. Aliquots (1 mL) from each plasma solution were drawn in triplicate and transferred to polycarbonate tubing. These samples underwent ultracentrifugation (Beckman OptimaMax; Beckman Coulter Inc., Brea, CA, USA) at 850,000× g for 4 h at 37 °C.
(§2) The remaining plasma solutions were returned for incubation at 37 °C and 125 rpm for an additional 4 h. Five-hour stability samples (T300 min) were then drawn in triplicate and diluted in four volumes of plasma ultrafiltrate. After ultracentrifugation, the aqueous fraction (AF) was collected by transferring the supernatant to a new tube and diluting in an equal volume of plasma for matrix matching. All samples were combined with 3 volumes of ice-cold ACN containing 16 ng/mL of ^13C3-HFPO-DA and 16 ng/mL of ^13C-Testosterone (Cambridge Isotope Laboratories; 98% pure). Samples were vigorously mixed, stored for 10 min at −20 °C, and then centrifuged at 12,000× g for 10 min at 4 °C. Supernatants were collected then stored at −70 °C prior to analysis.
(§3) Fraction unbound (fu) in plasma (fup) and percent stability calculations are detailed in Supplementary Text S10. Hepatic clearance, the fu in blood (fub) (fu in plasma adjusted for blood:plasma partitioning), and renal clearance were used to derive the steady-state concentration (Css) of each compound that will be used for in vitro–in vivo extrapolation (IVIVE). Renal clearance was calculated using the glomerular filtration rate (a species-dependent constant) and the fub. The Css calculation is detailed in Supplementary Text S11.
(§4) The gradient is available in Table S11. […]
(§5) Chemical stability in plasma was assessed
(§6) (F) Percent Stability = T300minutesT60minutes∗100

[2] = test system: Human plasma; experiment: as above; type: in vitro ADME; settings: 10000 nM; for Average Stability (T5hr/ T1hr): 37 °C; for Aqueous Fraction concentration: after ultracentrifugation; for Aqueous Fraction concentration / Fraction Unbound in plasma (fup) / Stability (T5hr/ T1hr) / Time 1 hr concentration / Time 5 hr concentration: replicates A-C
Protocol: as §1, §2, §3, §4, §5, §6

[3] = Ultracentrifugation plasma protein binding assay, rat plasma; type: in vitro ADME; settings: both sexes, Sprague Dawley, rat
Protocol: as §1, §2, §3, §4, §5, §6

[4] = test system: Sprague Dawley rodent plasma; experiment: as above; type: in vitro ADME; settings: rat plasma, 10000 nM
Protocol: as §1, §2, §3, §4, §5, §6

[5] = In vitro-in vivo extrapolation (IVIVE) to estimate Css, rat; settings: for Css / Css (steady-state concentration, plasma): IVIVE, BW 0.25 kg; for Css: ID 0.042 mg/kg/hr; for Css (steady-state concentration, plasma): intake dosage 1 mg/kg/day; for fraction unbound at 300 min: Sprague Dawley, blood, fub=fup/(1-hemocrit ref value), hematocrit 0.439; for Clint: scaled (HPGL 117, Vl 9.5 g)
Protocol: as §3
Linear regression analysis in conjunction […]
cells in the Clint equation. […]
concentration by the T300 min concentration (Equation E). Chemical stability in plasma was assessed […]
(F) Percent Stability = T300minutesT60minutes∗100 […]
blood (fub) of the parent compound. The Clhepatic calculation is shown in the second part of the denominator of Equation G; it is the product of the species dependent liver blood flow constant, the fub of the parent compound, and the experimentally derived intrins ic clearance (s hown in Equation D) divided by the sum these three values. All values used in Equation G are for first order conditions of metabolism in the liver. All calculations, scalars, and species dependent values used to conduct the Css calculation to facilitate in vitro-in vivo extrapolation (IVIVE) are provided Table S19 within the Excel worksheet, the tab […]
Based on the principle of reverse dosimetry, the Css values derived from IVIVE will be u sed as conversion factors to generate AEDs according to Equation H. In this equation, the AED is linearly related to the in vitro concentration and inversely related to the Css. It is only valid for first-order metabolism that is expected at ambient exposure levels.
(H) AED ൮ mgkg൲ = in vitro concentration (µM )

[6] = plasma, 10 µM, ultracentrifugation, read-out: Experimental fup (average fraction unbound in plasma)
[7] = pooled human plasma, 10000 nM, replicates A-C, read-out: Fraction Unbound in plasma (fup)
[8] = plasma, Rat plasma, 10 µM, ultracentrifugation, read-out: Experimental fup (average fraction unbound in plasma)
[9] = rat plasma, 10000 nM, Rep A, read-out: Fraction Unbound in plasma (fup), Rep A
[10] = rat plasma, 10000 nM, Rep C, read-out: Fraction Unbound in plasma (fup), Rep C
[11] = rat plasma, 10000 nM, Rep B, read-out: Fraction Unbound in plasma (fup), Rep B

Q: Which results are given for `O=C(O)C(F)(OC(F)(F)C(F)(F)C(F)(F)F)C(F)(F)F` (stereo not drawn) [HFPO-DA, perfluoro-2-methyl-3-oxahexanoic acid]?
A: fraction unbound at 4 h, 10 µM [1, 6]: 0.0098; fraction unbound at 4 h, 10 µM [1, 7]: 0.0099; Average Stability (T5hr/ T1hr) [2]: 0.9905; Aqueous Fraction concentration [2]: 72.64 nM and 73.60 nM and 65.28 nM; Fraction Unbound in plasma (fup) [2]: 0.0095; Stability (T5hr/ T1hr) [2]: 0.9836 and 1.1438 and 0.8441; Time 1 hr concentration [2]: 7.4664 µM and 6.7536 µM and 7.8224 µM; Time 5 hr concentration [2]: 7.344 µM and 7.7248 µM and 6.6032 µM; fraction unbound at 4 h, 10 µM [3, 8]: 0.0307; fraction unbound at 4 h, 10 µM [3, 9]: 0.0304; fraction unbound at 4 h, 10 µM [3, 10]: 0.031; Average Stability (T5hr/ T1hr) [4]: 1.0909; Aqueous Fraction, Rep A [4]: 265.60 nM; Stability (T5hr/ T1hr), Rep A [4]: 1.0510; Time 1 hr concentration, Rep A [4]: 8.312 µM; Time 5 hr concentration, Rep A [4]: 8.736 µM; Aqueous Fraction, Rep B [4]: 230.40 nM; Time 1 hr concentration, Rep B [4]: 7.672 µM; Aqueous Fraction, Rep C [4]: 240 nM; Stability (T5hr/ T1hr), Rep C [4]: 1.1308; Time 1 hr concentration, Rep C [4]: 6.848 µM; Time 5 hr concentration, Rep C [4]: 7.744 µM; Clhep (hepatic clearance) [5]: 0 L/h; Css [5]: 2400 ng/mL; Css (steady-state concentration, plasma) [5]: 7.27 µM and 7.2674 µM; fraction unbound at 300 min [5]: 0.0547; Clint [5]: 0 µL/min

Q: With `O=C(O)C(F)(OC(F)(F)C(F)(OC(F)(F)C(F)(F)C(F)(F)F)C(F)(F)F)C(F)(F)F` (stereo not drawn) [HFPO-TA, perfluoro-(2,5-dimethyl-3,6-dioxanonanoic) acid] as the molecule, how does the fraction unbound at 4 h, 10 µM [1, 6] read?
A: 0.0013

Q: What about the fraction unbound at 4 h, 10 µM [1, 7] of the same molecule?
A: 0.0013

Q: What about the “Average Stability (T5hr/ T1hr)” value [2] of the same molecule?
A: 1.0308

Q: And the “Aqueous Fraction concentration” value [2]?
A: 8.96 nM and 9.6 nM and 15.04 nM

Q: What about the “Fraction Unbound in plasma (fup)” value [2] of the same molecule?
A: 0.0011 and 0.0015

Q: And the “Stability (T5hr/ T1hr)” value [2]?
A: 0.7676 and 1.2763 and 1.0484

Q: What about the “Time 1 hr concentration” value [2] of the same molecule?
A: 8.7016 µM and 7.0496 µM and 9.7592 µM

Q: And the “Time 5 hr concentration” value [2]?
A: 6.6792 µM and 8.9976 µM and 10.232 µM

Q: And the fraction unbound at 4 h, 10 µM [3, 8]?
A: 0.0018

Q: What about the fraction unbound at 4 h, 10 µM [3, 9] of the same molecule?
A: 0.00165

Q: What about the fraction unbound at 4 h, 10 µM [3, 11] of the same molecule?
A: 0.00156

Q: What about the fraction unbound at 4 h, 10 µM [3, 10] of the same molecule?
A: 0.00223

Q: And the “Average Stability (T5hr/ T1hr)” value [4]?
A: 1.0261

Q: What about the “Aqueous Fraction, Rep A” value [4] of the same molecule?
A: 16.00 nM

Q: And the “Stability (T5hr/ T1hr), Rep A” value [4]?
A: 0.9209

Q: And the “Time 1 hr concentration, Rep A” value [4]?
A: 10.52 µM

Q: What about the “Time 5 hr concentration, Rep A” value [4] of the same molecule?
A: 9.688 µM

Q: What about the “Aqueous Fraction, Rep B” value [4] of the same molecule?
A: 16.00 nM

Q: And the “Stability (T5hr/ T1hr), Rep B” value [4]?
A: 1.1708

Q: What about the “Time 1 hr concentration, Rep B” value [4] of the same molecule?
A: 8.76 µM

Q: What about the “Time 5 hr concentration, Rep B” value [4] of the same molecule?
A: 10.256 µM

Q: What about the “Aqueous Fraction, Rep C” value [4] of the same molecule?
A: 22.40 nM

Q: What about the “Stability (T5hr/ T1hr), Rep C” value [4] of the same molecule?
A: 0.9866

Q: And the “Time 1 hr concentration, Rep C” value [4]?
A: 10.184 µM

Q: And the “Time 5 hr concentration, Rep C” value [4]?
A: 10.048 µM

Q: And the “Clhep (hepatic clearance)” value [5]?
A: 0 L/h

Q: What about the Css [5] of the same molecule?
A: 40600 ng/mL

Q: And the “Css (steady-state concentration, plasma)” value [5]?
A: 81.84 µM and 81.8399 µM

Q: What about the fraction unbound at 300 min [5] of the same molecule?
A: 0.0032

Q: And the Clint [5]?
A: 0 µL/min

Q: With `O=C(O)C(F)(OC(F)(F)C(F)(OC(F)(F)C(F)(OC(F)(F)C(F)(F)C(F)(F)F)C(F)(F)F)C(F)(F)F)C(F)(F)F` (stereo not drawn) [HFPO-TeA, perfluoro-(2,5,8-trimethyl-3,6,9-trioxadodecanoic) acid] as the molecule, how does the fraction unbound at 4 h, 10 µM [1, 6] read?
A: 0.0124

Q: What about the fraction unbound at 4 h, 10 µM [1, 7] of the same molecule?
A: 0.0121

Q: What about the “Average Stability (T5hr/ T1hr)” value [2] of the same molecule?
A: 1.0363

Q: And the “Aqueous Fraction concentration” value [2]?
A: 83.20 nM and 80 nM and 121.60 nM

Q: And the “Fraction Unbound in plasma (fup)” value [2]?
A: 0.0109 and 0.0142

Q: And the “Stability (T5hr/ T1hr)” value [2]?
A: 0.9304 and 0.9406 and 1.2379

Q: And the “Time 1 hr concentration” value [2]?
A: 7.36 µM and 7.808 µM and 6.928 µM

Q: And the “Time 5 hr concentration” value [2]?
A: 6.848 µM and 7.344 µM and 8.576 µM

Q: What about the fraction unbound at 4 h, 10 µM [3, 8] of the same molecule?
A: 0.0059

Q: And the fraction unbound at 4 h, 10 µM [3, 9]?
A: 0.00493

Q: What about the fraction unbound at 4 h, 10 µM [3, 11] of the same molecule?
A: 0.00519

Q: And the fraction unbound at 4 h, 10 µM [3, 10]?
A: 0.00748

Q: What about the “Average Stability (T5hr/ T1hr)” value [4] of the same molecule?
A: 1.1996

Q: What about the “Aqueous Fraction, Rep A” value [4] of the same molecule?
A: 38.40 nM

Q: What about the “Stability (T5hr/ T1hr), Rep A” value [4] of the same molecule?
A: 0.9294

Q: And the “Time 1 hr concentration, Rep A” value [4]?
A: 8.384 µM

Q: And the “Time 5 hr concentration, Rep A” value [4]?
A: 7.792 µM

Q: What about the “Aqueous Fraction, Rep B” value [4] of the same molecule?
A: 35.20 nM

Q: What about the “Stability (T5hr/ T1hr), Rep B” value [4] of the same molecule?
A: 1.0392

Q: And the “Time 1 hr concentration, Rep B” value [4]?
A: 6.528 µM

Q: What about the “Time 5 hr concentration, Rep B” value [4] of the same molecule?
A: 6.784 µM

Q: And the “Aqueous Fraction, Rep C” value [4]?
A: 48.00 nM

Q: And the “Stability (T5hr/ T1hr), Rep C” value [4]?
A: 1.6301

Q: And the “Time 1 hr concentration, Rep C” value [4]?
A: 3.936 µM

Q: And the “Time 5 hr concentration, Rep C” value [4]?
A: 6.416 µM

Q: What about the “Clhep (hepatic clearance)” value [5] of the same molecule?
A: 0 L/h

Q: What about the Css [5] of the same molecule?
A: 12550 ng/mL

Q: And the “Css (steady-state concentration, plasma)” value [5]?
A: 19 µM and 18.96 µM and 18.9581 µM

Q: And the fraction unbound at 300 min [5]?
A: 0.0105

Q: What about the Clint [5] of the same molecule?
A: 0 µL/min
